molecular target: T1, human Nav1.7 (hNav1.7) (Homo sapiens, UniProt Q15858); test: hNav1.7 whole-cell patch-clamp electrophysiology (automated PatchXpress 7000A or manual) in stably expressing 293 cells; assay type: cell-based; details: average IC50
T1 construct: expressed in transfected cells
How it was run: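 Stably transfected 293 cells lacking endogenous sodium channels; peak current evoked by depolarizing pulses during increasing compound concentrations, automated at ~20% fractional inactivation, or manually at −140 mV (resting) and ~20% inactivation. Block taken at steady state, corrected for rundown; IC50 by Hill fit.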

T1 sequence (Q15858 whole entry): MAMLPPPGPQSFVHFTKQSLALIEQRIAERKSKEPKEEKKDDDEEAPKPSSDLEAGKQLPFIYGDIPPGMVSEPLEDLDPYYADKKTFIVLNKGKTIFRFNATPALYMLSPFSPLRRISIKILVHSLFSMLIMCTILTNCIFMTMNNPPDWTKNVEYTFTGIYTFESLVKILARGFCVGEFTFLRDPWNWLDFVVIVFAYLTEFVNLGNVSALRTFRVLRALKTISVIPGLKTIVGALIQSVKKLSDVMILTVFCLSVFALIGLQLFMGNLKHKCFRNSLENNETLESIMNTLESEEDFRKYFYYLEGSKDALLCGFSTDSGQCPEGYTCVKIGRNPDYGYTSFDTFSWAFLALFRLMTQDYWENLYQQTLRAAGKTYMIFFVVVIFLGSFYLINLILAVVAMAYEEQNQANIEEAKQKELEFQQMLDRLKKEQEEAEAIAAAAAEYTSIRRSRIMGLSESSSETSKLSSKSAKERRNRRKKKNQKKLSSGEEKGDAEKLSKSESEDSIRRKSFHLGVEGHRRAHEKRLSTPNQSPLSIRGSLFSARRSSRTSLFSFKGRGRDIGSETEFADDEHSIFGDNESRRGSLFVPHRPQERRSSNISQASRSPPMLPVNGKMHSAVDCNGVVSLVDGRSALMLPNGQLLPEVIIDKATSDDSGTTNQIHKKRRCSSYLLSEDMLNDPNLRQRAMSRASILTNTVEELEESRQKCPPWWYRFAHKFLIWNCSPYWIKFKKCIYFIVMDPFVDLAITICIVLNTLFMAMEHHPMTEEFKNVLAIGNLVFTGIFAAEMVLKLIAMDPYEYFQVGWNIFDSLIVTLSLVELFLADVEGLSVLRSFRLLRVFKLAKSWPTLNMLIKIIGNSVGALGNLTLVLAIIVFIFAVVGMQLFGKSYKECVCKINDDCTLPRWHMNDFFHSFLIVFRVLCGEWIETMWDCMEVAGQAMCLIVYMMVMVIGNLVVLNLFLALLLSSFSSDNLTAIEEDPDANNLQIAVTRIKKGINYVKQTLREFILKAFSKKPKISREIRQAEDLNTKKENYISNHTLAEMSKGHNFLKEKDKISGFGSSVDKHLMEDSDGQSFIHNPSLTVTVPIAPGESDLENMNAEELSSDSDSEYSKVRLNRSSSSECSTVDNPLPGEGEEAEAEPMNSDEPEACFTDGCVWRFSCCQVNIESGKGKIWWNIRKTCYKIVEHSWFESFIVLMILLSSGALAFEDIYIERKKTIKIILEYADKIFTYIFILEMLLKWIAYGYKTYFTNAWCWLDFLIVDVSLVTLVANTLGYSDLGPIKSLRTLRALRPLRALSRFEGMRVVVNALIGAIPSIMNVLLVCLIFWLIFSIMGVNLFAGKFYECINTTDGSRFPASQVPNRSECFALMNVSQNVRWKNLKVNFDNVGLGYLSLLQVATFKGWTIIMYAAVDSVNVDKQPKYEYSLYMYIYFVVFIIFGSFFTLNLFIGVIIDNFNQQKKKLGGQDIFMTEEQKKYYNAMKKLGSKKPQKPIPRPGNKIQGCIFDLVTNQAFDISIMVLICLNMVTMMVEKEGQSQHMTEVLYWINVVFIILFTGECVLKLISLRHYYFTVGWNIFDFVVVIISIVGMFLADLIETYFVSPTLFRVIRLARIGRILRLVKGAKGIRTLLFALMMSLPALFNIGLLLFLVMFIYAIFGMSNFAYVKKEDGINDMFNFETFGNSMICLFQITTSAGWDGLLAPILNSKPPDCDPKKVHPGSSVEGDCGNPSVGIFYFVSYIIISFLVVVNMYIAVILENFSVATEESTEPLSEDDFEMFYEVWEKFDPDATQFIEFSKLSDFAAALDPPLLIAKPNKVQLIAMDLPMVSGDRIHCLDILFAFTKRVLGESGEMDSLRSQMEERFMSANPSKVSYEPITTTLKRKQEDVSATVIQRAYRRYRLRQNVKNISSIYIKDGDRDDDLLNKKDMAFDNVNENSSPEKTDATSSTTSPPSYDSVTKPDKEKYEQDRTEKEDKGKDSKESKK

Row | IC50 | SMILES
1 | 22.1 µM | CNC(=O)c1cccc(Nc2ncnc(N3CC(C)(COc4ccccc4)C3)n2)c1 [Example 273]
2 | > 30 µM | CNC(=O)c1cccc(Nc2ncnc(NCc3cn4cc(C)ccc4n3)n2)c1 [Example 286]
3 | > 30 µM | CNC(=O)c1cccc(Nc2ncnc(N3CCc4ccc(C(F)(F)F)cc4C3)n2)c1 [Example 298]
4 | > 30 µM | Cc1c(Nc2ncnc(N3CCc4cc(Br)ccc4C3)n2)cccc1C(N)=O [Example 293]
5 | 25.4 µM | CNC(=O)c1cccc(Nc2ncnc(N3CCC(OCc4cccc(OC(F)(F)F)c4)CC3)n2)c1 [Example 277]
6 | > 30 µM | CNC(=O)c1cccc(Nc2ncnc(N3CCc4cc(C(O)C(F)(F)F)ccc4C3)n2)c1 (stereo not shown) [Example 292]

same assay, conditions: average IC50, human Nav1.7

Row | IC50 | SMILES
7 | 8.82 µM | CNC(=O)c1cc(Nc2ncnc(N3CC(Oc4ccc(Cl)cc4)C3)n2)ccc1O [Example 219]
8 | 1.56 µM | CNC(=O)c1cc(F)cc(Nc2ncnc(N3CCC(c4nc(-c5ccccc5)cs4)CC3)n2)c1 [Example 103]
9 | 11.1 µM | CN(C)C(=O)c1cccc(Nc2ncnc(N3CCC(OCc4ccc(OC(F)(F)F)cc4)CC3)n2)c1 [Example 240]
10 | 0.61 µM | CNC(=O)c1cccc(Nc2ncnc(N3CCN(c4cccc(OC)c4)CC3)n2)c1 [Example 44]
11 | 16.9 µM | CNC(=O)c1cccc(Nc2ncnc(N3CCC(Nc4ccccc4)CC3)n2)c1 [Example 257]
12 | 2.44 µM | CNC(=O)c1cccc(Nc2ncnc(N3CCc4cc(Cl)ccc4C3)n2)c1 [Example 130]
13 | 3.82 µM | CNC(=O)c1ccc(F)c(Nc2ncnc(N3CC(Oc4ccc(F)cc4)C3)n2)c1 [Example 165]
14 | 2.31 µM | CNC(=O)c1cccc(Nc2ncnc(N3CC(Oc4ccc(C#N)c(Cl)c4)C3)n2)c1 [Example 128]
15 | 9.42 µM | CNC(=O)c1cccc(Nc2ncnc(N3CCC(OCc4ccc(F)c(F)c4)CC3)n2)c1 [Example 228]
16 | 0.79 µM | CNC(=O)c1cccc(Nc2ncnc(N3CCN(c4cccc(F)c4)CC3)n2)c1 [Example 60]
17 | 12.7 µM | CCCc1noc(C2CCN(c3ncnc(Nc4cccc(C(=O)NC)c4)n3)CC2)n1 [Example 246]
18 | 0.44 µM | CNC(=O)c1cccc(Nc2ncnc(N3CC(Oc4ccc(C)cc4Cl)C3)n2)c1 [Example 32]
19 | 8.31 µM | CNC(=O)c1cccc(Nc2ncnc(N3CCCC(Oc4ccccc4Cl)C3)n2)c1 (stereo not shown) [Example 212]
20 | 0.85 µM | CNC(=O)c1cccc(Nc2ncnc(N3CC(COc4ccc(OC(F)(F)F)cc4)C3)n2)c1 [Example 67]
21 | 1.17 µM | CNC(=O)c1cccc(Nc2ncnc(N3CCC(Oc4ccccc4Cl)CC3)n2)c1 [Example 85]
22 | 4.33 µM | CNC(=O)c1cccc(Nc2ncnc(N3CC(COc4cccc(OC(F)(F)F)c4)C3)n2)c1 [Example 171]
23 | 1.44 µM | CNC(=O)c1cccc(Nc2ncnc(N3CCC(Oc4ccc(OCC(F)(F)F)cc4)CC3)n2)c1 [Example 101]
24 | 0.76 µM | CNC(=O)c1cccc(Nc2ncnc(N3CCC(Oc4ccc(OC(F)(F)F)cc4)CC3)n2)c1 [Example 58]

Row | IC50 | SMILES
25 | 15.7 µM | CNC(=O)c1cccc(Nc2ncnc(NCc3nc(-c4ccccc4)no3)n2)c1 [Example 254]
26 | 1.41 µM | CNC(=O)c1cc(F)cc(Nc2ncnc(N3CC(Oc4ccc(F)cc4)C3)n2)c1 [Example 98]
27 | 0.96 µM | CNC(=O)c1cc(Nc2ncnc(NCCCOc3ccc(OC(F)(F)F)cc3)n2)ccc1Cl [Example 75]
28 | 5.43 µM | CNC(=O)c1cccc(Nc2ncnc(N3CC(Oc4cc(F)cc(F)c4)C3)n2)c1 [Example 187]
29 | 12.5 µM | CNC(=O)c1cccc(Nc2ncnc(N3CCC(C#N)(c4ccc(F)cc4)CC3)n2)c1 [Example 245]
30 | 2 µM | CNC(=O)c1cccc(Nc2ncnc(N3CCC(c4ccc(C)c(C)c4)CC3)n2)c1 [Example 117]
31 | 0.35 µM | CNC(=O)c1cccc(Nc2ncnc(N3CCN(c4cccc(OC(F)(F)F)c4)CC3)n2)c1 [Example 23]
32 | 1.4 µM | CNC(=O)c1cc(Nc2ncnc(N3CC(Oc4ccc(F)c(Cl)c4)C3)n2)ccc1Cl [Example 97]
33 | 15.2 µM | CNC(=O)c1cccc(Nc2ncnc(N3CC(COc4cccc5ccccc45)C3)n2)c1 [Example 253]
34 | 0.27 µM | CNC(=O)c1cccc(Nc2ncnc(NCCCOc3ccc(OC(F)(F)F)cc3)n2)c1 [Example 13]
35 | 1.35 µM | CNC(=O)c1cccc(Nc2ncnc(N3CCN(c4ccccc4F)CC3)n2)c1 [Example 95]
36 | 8.3 µM | CNC(=O)c1cccc(Nc2ncnc(N3CCC3COc3ccc(Cl)cc3)n2)c1 (stereo not shown) [Example 211]
37 | 17.8 µM | CNC(=O)c1cc(Cl)cc(Nc2ncnc(N3CC(Oc4ccc(F)cc4)C3)n2)c1 [Example 262]
38 | 0.96 µM | CNC(=O)c1cccc(Nc2ncnc(N3CCN(c4ccc(C(F)(F)F)cc4)CC3)n2)c1 [Example 74]
39 | 10 µM | CNC(=O)c1cccc(Nc2ncnc(N3CC(COc4ccc5ccccc5c4)C3)n2)c1 [Example 234]
40 | 2.91 µM | CNC(=O)c1cc(F)cc(Nc2ncnc(N3CCC(Oc4ccc(OC(F)(F)F)cc4)CC3)n2)c1 [Example 146]
41 | 1.26 µM | CNC(=O)c1cc(Nc2ncnc(N3CC(COc4ccc(Cl)cc4)C3)n2)ccc1Cl [Example 90]

Row | SMILES | IC50
42 | CNC(=O)c1cccc(Nc2nccc(N3CC(Oc4ccc(Cl)c(F)c4)C3)n2)c1 [Example 55] | 0.74 µM

same assay, conditions: human Nav1.7 stably expressed in 293 cells; whole-cell patch clamp; average IC50 from Hill fit

Row | IC50 | SMILES
43 | 2.78 µM | CNC(=O)c1cccc(Nc2cccc(N3CC(Oc4ccc(Cl)cc4F)C3)n2)c1 [Example W, 3-((6-(3-(4-chloro-2-fluorophenoxy)-1-azetidinyl)-2-pyridinyl)amino)-N-methylbenzamide]
44 | 4.46 µM | CNC(=O)c1cc(Nc2cccc(N3CC(Oc4ccc(Cl)cc4F)C3)n2)ccc1F [Example X, 5-((6-(3-(4-chloro-2-fluorophenoxy)-1-azetidinyl)-2-pyridinyl)amino)-2-fluoro-N-methylbenzamide]
45 | 1.44 µM | CNC(=O)c1cccc(Nc2nccc(N3CCc4cc(OCC(F)(F)F)ccc4C3)n2)c1 [Example AI, N-methyl-3-((4-(6-(2,2,2-trifluoroethoxy)-3,4-dihydro-2(1H)-isoquinolinyl)-2-pyrimidinyl)amino)benzamide]
46 | 1.41 µM | CNC(=O)c1cccc(Nc2nccc(N3CC(Oc4ccc(F)c(C)c4)C3)n2)c1 [Example G, 3-((4-(3-(4-fluoro-3-methylphenoxy)-1-azetidinyl)-2-pyrimidinyl)amino)-N-methylbenzamide]
47 | 0.34 µM | CNC(=O)c1cccc(Nc2nc(N3CC(Oc4ccc(F)cc4)C3)ncc2F)c1 [Example AH, 3-((5-fluoro-2-(3-(4-fluorophenoxy)-1-azetidinyl)-4-pyrimidinyl)amino)-N-methylbenzamide]
48 | 0.43 µM | CNC(=O)c1cccc(Nc2nc(N3CC(Oc4ccc(Cl)cc4F)C3)ncc2F)c1 [Example AK, 3-((2-(3-(4-chloro-2-fluorophenoxy)-1-azetidinyl)-5-fluoro-4-pyrimidinyl)amino)-N-methylbenzamide]
49 | 1.14 µM | CCNC(=O)c1cccc(Nc2ncnc(N3CC(Oc4ccc(Cl)cc4F)C3)n2)c1 [Example R, 3-(4-(3-(4-chloro-2-fluorophenoxy)azetidin-1-yl)-1,3,5-triazin-2-ylamino)-N-ethylbenzamide]
